Results taken from patent US9211310B2, “Use of a Chinese medicine composition in preparing medicaments for treating secondary prevention of myocardial infarction” (TASLY PHARMACEUTICAL GROUP CO., LTD, priority 2010, dated 2015).

Test system: patients after acute myocardial infarction
Experiment: TCM symptom score, total and single (chest pain, chest tightness, short breath, fatigue, palpitation, spontaneous perspiration, pale complexion), same clinical trial
Type: in vivo, human
Details: for chest pain score 0, number of patients / chest pain score 0, percent of patients / chest pain score 3, number of patients / chest pain score 3, percent of patients / chest pain score 6, number of patients / chest pain score 6, percent of patients / chest pain score 9, number of patients / chest pain score 9, percent of patients / chest tightness score 0, number of patients / chest tightness score 0, percent of patients / chest tightness score 3, number of patients / chest tightness score 3, percent of patients / chest tightness score 6, number of patients / chest tightness score 6, percent of patients / chest tightness score 9, number of patients / chest tightness score 9, percent of patients: 1 month after treatment
Source text: 3508 patients who were in accordance with the diagnostic standards of AMI for 28 days to 2 years and differentiated as Qi deficiency and blood stagnation syndrome by TCM were studied. 0.5 g Chinese medicine composition prepared by the method of EXAMPLE 1 (Coded as QSYQ) was administrated half an hour after meal, 3 times per day.
They included the overall survival time, angina pectoris score, TCM symptom score and life quality score, where angina pectoris score, TCM symptom score and life quality score were evaluated at randomization, in 1st, 3rd, 6th, 9th, 12th month after treatment and 18th month after follow-up.
The analysis method referred to the angina pectoris score.

[1] = 1 month after treatment-baseline, FAS
[2] = 1 month after treatment-baseline, PP
[3] = 3 months after treatment-baseline, FAS
[4] = 3 months after treatment-baseline, PP

CC(=O)Oc1ccccc1C(=O)O [Control group, aspirine]
change of chest pain score 0, number of patients [1]: 1344
change of chest pain score 0, percent of patients [1]: (78.64%)
change of chest pain score 3, number of patients [1]: 226
change of chest pain score 3, percent of patients [1]: (13.22%)
change of chest pain score 6, number of patients [1]: 60
change of chest pain score 6, percent of patients [1]: (3.51%)
change of chest pain score 9, number of patients [1]: 4
change of chest pain score 9, percent of patients [1]: (0.23%)
change of chest pain score −3, number of patients [1]: 59
change of chest pain score −3, percent of patients [1]: (3.45%)
change of chest pain score −6, number of patients [1]: 16
change of chest pain score −6, percent of patients [1]: (0.94%)
change of chest pain score −9, number of patients [1]: 0
change of chest pain score −9, percent of patients [1]: (0.00%)
change of chest tightness score 0, number of patients [1]: 1302
change of chest tightness score 0, percent of patients [1]: (76.18%)
change of chest tightness score 3, number of patients [1]: 298
change of chest tightness score 3, percent of patients [1]: (17.44%)
change of chest tightness score 6, number of patients [1]: 21
change of chest tightness score 6, percent of patients [1]: (1.23%)
change of chest tightness score 9, number of patients [1]: 5
change of chest tightness score 9, percent of patients [1]: (0.29%)
change of chest tightness score −3, number of patients [1]: 76
change of chest tightness score −3, percent of patients [1]: (4.45%)
change of chest tightness score −6, number of patients [1]: 7
change of chest tightness score −6, percent of patients [1]: (0.41%)
change of chest pain score 0, number of patients [2]: 1146
change of chest pain score 0, percent of patients [2]: (78.49%)
change of chest pain score 3, number of patients [2]: 197
change of chest pain score 3, percent of patients [2]: (13.49%)
change of chest pain score 6, number of patients [2]: 52
change of chest pain score 6, percent of patients [2]: (3.56%)
change of chest pain score 9, number of patients [2]: 3
change of chest pain score 9, percent of patients [2]: (0.21%)
change of chest pain score −3, number of patients [2]: 50
change of chest pain score −3, percent of patients [2]: (3.42%)
change of chest pain score −6, number of patients [2]: 12
change of chest pain score −6, percent of patients [2]: (0.82%)
change of chest pain score −9, number of patients [2]: 0
change of chest pain score −9, percent of patients [2]: (0.00%)
change of chest tightness score 0, number of patients [2]: 1110
change of chest tightness score 0, percent of patients [2]: (76.03%)
change of chest tightness score 3, number of patients [2]: 259
change of chest tightness score 3, percent of patients [2]: (17.74%)
change of chest tightness score 6, number of patients [2]: 19
change of chest tightness score 6, percent of patients [2]: (1.30%)
change of chest tightness score 9, number of patients [2]: 4
change of chest tightness score 9, percent of patients [2]: (0.27%)
change of chest tightness score −3, number of patients [2]: 62
change of chest tightness score −3, percent of patients [2]: (4.25%)
change of chest tightness score −6, number of patients [2]: 6
change of chest tightness score −6, percent of patients [2]: (0.41%)
chest pain score 0, number of patients (FAS): 608
chest pain score 0, percent of patients (FAS): (35.41%)
chest pain score 3, number of patients (FAS): 635
chest pain score 3, percent of patients (FAS): (36.98%)
chest pain score 6, number of patients (FAS): 461
chest pain score 6, percent of patients (FAS): (26.85%)
chest pain score 9, number of patients (FAS): 13
chest pain score 9, percent of patients (FAS): (0.76%)
chest tightness score 0, number of patients (FAS): 608
chest tightness score 0, percent of patients (FAS): (35.41%)
chest tightness score 3, number of patients (FAS): 635
chest tightness score 3, percent of patients (FAS): (36.98%)
chest tightness score 6, number of patients (FAS): 461
chest tightness score 6, percent of patients (FAS): (26.85%)
chest tightness score 9, number of patients (FAS): 13
chest tightness score 9, percent of patients (FAS): (0.76%)
chest pain score 0, number of patients (PP): 515
chest pain score 0, percent of patients (PP): (35.13%)
chest pain score 3, number of patients (PP): 537
chest pain score 3, percent of patients (PP): (36.63%)
chest pain score 6, number of patients (PP): 406
chest pain score 6, percent of patients (PP): (27.69%)
chest pain score 9, number of patients (PP): 8
chest pain score 9, percent of patients (PP): (0.55%)
chest tightness score 0, number of patients (PP): 515
chest tightness score 0, percent of patients (PP): (35.13%)
chest tightness score 3, number of patients (PP): 537
chest tightness score 3, percent of patients (PP): (36.63%)
chest tightness score 6, number of patients (PP): 406
chest tightness score 6, percent of patients (PP): (27.69%)
chest tightness score 9, number of patients (PP): 8
chest tightness score 9, percent of patients (PP): (0.55%)
change of chest pain score 0, number of patients [3]: 1203
change of chest pain score 0, percent of patients [3]: (70.39%)
change of chest pain score 3, number of patients [3]: 325
change of chest pain score 3, percent of patients [3]: (19.02%)
change of chest pain score 6, number of patients [3]: 76
change of chest pain score 6, percent of patients [3]: (4.45%)
change of chest pain score 9, number of patients [3]: 6
change of chest pain score 9, percent of patients [3]: (0.35%)
change of chest pain score −3, number of patients [3]: 79
change of chest pain score −3, percent of patients [3]: (4.62%)
change of chest pain score −6, number of patients [3]: 20
change of chest pain score −6, percent of patients [3]: (1.17%)
change of chest pain score −9, number of patients [3]: 0
change of chest pain score −9, percent of patients [3]: (0.00%)
change of chest tightness score 0, number of patients [3]: 1190
change of chest tightness score 0, percent of patients [3]: (69.63%)
change of chest tightness score 3, number of patients [3]: 383
change of chest tightness score 3, percent of patients [3]: (22.41%)
change of chest tightness score 6, number of patients [3]: 37
change of chest tightness score 6, percent of patients [3]: (2.17%)
change of chest tightness score 9, number of patients [3]: 5
change of chest tightness score 9, percent of patients [3]: (0.29%)
change of chest tightness score −3, number of patients [3]: 85
change of chest tightness score −3, percent of patients [3]: (4.97%)
change of chest tightness score −6, number of patients [3]: 8
change of chest tightness score −6, percent of patients [3]: (0.47%)
change of chest tightness score −9, number of patients [3]: 1
change of chest tightness score −9, percent of patients [3]: (0.06%)
change of chest pain score 0, number of patients [4]: 1019
change of chest pain score 0, percent of patients [4]: (70.62%)
change of chest pain score 3, number of patients [4]: 279
change of chest pain score 3, percent of patients [4]: (19.33%)
change of chest pain score 6, number of patients [4]: 63
change of chest pain score 6, percent of patients [4]: (4.37%)
change of chest pain score 9, number of patients [4]: 4
change of chest pain score 9, percent of patients [4]: (0.28%)
change of chest pain score −3, number of patients [4]: 64
change of chest pain score −3, percent of patients [4]: (4.44%)
change of chest pain score −6, number of patients [4]: 14
